Consider seven molecules from BindingDB's records for patent US20240246935 (Plexium, Inc., 2024).

Sequence of Protein cereblon (Q96SW2 whole entry): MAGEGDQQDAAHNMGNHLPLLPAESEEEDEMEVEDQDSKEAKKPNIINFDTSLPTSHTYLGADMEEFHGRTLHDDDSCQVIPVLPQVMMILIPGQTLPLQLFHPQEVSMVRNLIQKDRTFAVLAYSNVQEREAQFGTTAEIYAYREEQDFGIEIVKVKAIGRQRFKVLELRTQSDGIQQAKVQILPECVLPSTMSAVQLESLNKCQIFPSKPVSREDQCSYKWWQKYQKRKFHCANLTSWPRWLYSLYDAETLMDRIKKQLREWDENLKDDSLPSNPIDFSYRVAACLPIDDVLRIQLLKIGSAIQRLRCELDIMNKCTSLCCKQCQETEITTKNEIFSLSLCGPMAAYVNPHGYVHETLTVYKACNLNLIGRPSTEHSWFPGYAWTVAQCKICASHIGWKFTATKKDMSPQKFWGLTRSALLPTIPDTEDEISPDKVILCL

The assay has as its target Protein cereblon (Homo sapiens, UniProt Q96SW2). The experiment in a line: Cereblon (CRBN) Target Engagement. How it is done: Cereblon target engagement was monitored by Bioluminescence Resonance Energy Transfer (BRET) in transfected HEK-293T cells using the NanoBRET TE Intracellular E3 Ligase Assay (Promega). Briefly, 384-well plates (white opaque plates, Corning 3574, low binding surface) were seeded with transfected HEK-293T cells (38 uL/well). 2 uL of 10 uM CRBN tracer (diluted 1:5 in Tracer Dilution Buffer) was added to each well. Plates were centrifuged at 320 g for 1 min at room temperature. Test compounds were added in a 11-point dilution series (typically […]) using a TECAN D300e Digital Dispenser. Plates were shaken for 2 minutes on a microplate shaker to mix compounds. Plates were centrifuged at 320 g for 1 min at room temperature, and subsequently incubated for 2 hours at 37 C.After incubation, plates were allowed to cool to room temperature for 15 minutes. 20 uL of 3 Complete NanoBRET Nano-Glo Substrate plus Inhibitor Solution (Promega, 1:166 Substrate and 1:500 dilution of Extracellular NanoLuc Inhibitor diluted in Opti-MEM) were added to each well. Plates were incubated with shaking at room temperature for 3 minutes covered with foil. Plates were read on a CLARIOstar microplate reader (BMG LabTech), measuring at 450 nm (donor emission) and 610 nm (acceptor emission). The IC50 values were determined by regression to best fit four-parameter logistic curves using GraphPad Prism.
As a reminder, the EC50 is the concentration at which the effect is half-maximal. `O=C1CCC(N2Cc3cc(O[C@H]4CCC[C@@H]4N4CC(c5cccc(F)c5)C4)ccc3C2=O)C(=O)N1` (some centres not stated) [US20240246935, Example 88] showed an EC50 of 30.2 nM.

In turn, `O=C1NC(=O)C2(N3Cc4cc(O[C@H]5CCCC[C@@H]5N5CC(c6cccc(F)c6)C5)ccc4C3=O)CC1C2` [US20240246935, Example 89] showed a concentration for a half-maximal effect (EC50) of 6810 nM. `O=C1NC(=O)C2(N3Cc4cc(O[C@H]5CCC[C@@H]5N5CC(c6ccc(F)cc6Cl)C5)ccc4C3=O)CC1C2` [US20240246935, Example 86]: the EC50 was more than 10000 nM. Regarding `O=C1CCC(N2Cc3cc(O[C@H]4CCCC[C@@H]4N4CC(c5ccc(F)cc5Cl)C4)ccc3C2=O)C(=O)N1` (some centres not stated) [US20240246935, Example 103], the EC50 was 15 nM. For `O=C1CCC(N2Cc3cc(O[C@H]4CCC[C@@H]4N4CC(c5ccc(F)cc5Cl)C4)ccc3C2=O)C(=O)N1` (some centres not stated) [US20240246935, Example 104] the value was 18 nM; for `O=C1NC(=O)C2(N3Cc4cc(O[C@H]5CCC[C@@H]5N5CC(c6cccc(F)c6)C5)ccc4C3=O)CC1C2` [US20240246935, Example 87], more than 10000 nM. As for `O=C1NC(=O)C2(N3Cc4cc(O[C@H]5CCC[C@@H]5N5CCC(c6ccccc6)C5)ccc4C3=O)CC1C2` (some centres not stated) [US20240246935, Example 107], the EC50 is more than 10000 nM.
